From patent US20080207522A1, “Antimicrobial Peptides” (priority 2004, published 2008)
Several values for one entry are separate records, joined by “and”; a condition that tells them apart may be missing. Identical values can stand only once.

Experiments:
[1] = tested on: Pseudomonas aeruginosa strain H1001 fliC::luxCDABE; test: Luminescence-based assay for the non-cleaved (bound) peptides on cellulose membranes; assay type: cell-based; details: for Luminescence at the given time in minutes: 0 / Luminescence at the given time in minutes: 20 / Luminescence at the given time in minutes: 40 / Luminescence at the given time in minutes: 60 / Luminescence at the given time in minutes: 80 / Luminescence at the given time in minutes: 100 / Luminescence at the given time in minutes: 120 / Luminescence at the given time in minutes: 180 / Luminescence at the given time in minutes: 240: cellulose-bound peptide; for Luminescence at the given time in minutes: 0: 0 min; for Luminescence at the given time in minutes: 20: 20 min; for Luminescence at the given time in minutes: 40: 40 min; for Luminescence at the given time in minutes: 60: 60 min; for Luminescence at the given time in minutes: 80: 80 min; for Luminescence at the given time in minutes: 100: 100 min; for Luminescence at the given time in minutes: 120: 120 min; for Luminescence at the given time in minutes: 180: 180 min; for Luminescence at the given time in minutes: 240: 240 min; for Activity Class bound: uncleaved cellulose-bound peptides; for ability to inhibit light production (luminescence): cellulose bound peptide spots, three hours at 37° C., FIG. 2
Experimental: Luminescence-based MIC assay for the non-cleaved peptides on cellulose membranes. The peptide spots were punched out and transferred to a 96 well microtiter plate with a clear polystyrene bottom and opaque white polypropylene sides (PerkinElmer, Boston, USA). The spots were washed two times with 100% ethanol for 5 min and afterwards equilibrated five times with 100 mM Tris buffer pH 7.3 for 5 min. An overnight culture of Pseudomonas aeruginosa strain H1001 fliC::luxCDABE was diluted 1:50 in new MH medium and incubated at 37° C. to an OD600 of 0.35. This bacterial culture was diluted 1:25 into 10 mM Tris-HCl buffer, pH 7.3 containing 20 mM glucose. Fifty μl of this culture was added to all wells of the microtiter plate and incubated at 37° C. The luminescence of the strain produced by the ATP-dependent luciferase system was detected in a time dependent manner using a Tecan Spectra Fluor plus (Tecan, Austria). At the end of the experiment, the membranes were cleaned by washing the spots two times with 100% ethanol for five minutes. After removing the ethanol the membrane was air-dried.
(§1) Strains. For the killing assay a mini-Tn5-lux mutant in Pseudomonas aeruginosa H103 was used. The strain is called H1001 and contains a fliC::luxCDABE transcriptional fusion resulting in constitutive expression of luciferase. The bacterial strains used for the antimicrobial activity assays included Escherichia coli UB1005 (F-, nalA37, metB1), a wild-type Salmonella enterica ssp. Typhimurium (S. Typhimurium), wild-type Pseudomonas aeruginosa PAO1 strain H103, Enterococcus faecalis ATCC29212, Staphylococcus aureus ATCC25923, and a clinical isolate of Staphylococcus epidermidis obtained from Dr. D. Speert (Department of Medicine, University of British Columbia). Antifungal activity was tested using a lab isolate of Candida albicans obtained from Dr. B. Dill (Department of Microbiology and Immunology, University of British Columbia).
The same set of peptides, as well as the reversed sequence of Bac2A-R ([…]; SEQ ID NO: 2166), were synthesized on cellulose and left uncleaved. The production of light was initially compared in wells containing spots of Bac2A, Bac2A-R (with the reversed sequence of Bac2A), the unrelated negative-control peptide, or, as additional controls, only cellulose, or only bacteria (FIG. 2).
As a control, the negative control (unrelated) peptide Bac429 and parent peptide Bac2A (=Bac001) were used in several different wells of the microtiter plate. Luminescence (relative light units; RLU) was measured at 14 different time points, 9 of which are shown. To permit comparison of the data with the free peptide data set, the result for each peptide was classified into six different groups, like the data set with the free peptides (Table 2). […] For the soluble peptides the following classes were established: […]

[2] = tested on: Pseudomonas aeruginosa strain H1001; test: Assay for the cleaved (free, soluble) peptides from cellulose support, luminescence killing assay; assay type: cell-based; set-up: key: 1: Peptides showing stronger killing than Bac2A at a 4 to 8-fold higher dilution; Peptides showing stronger killing compared to that of Bac2A at a 4-fold higher dilution; 3: Peptides similar to Bac2A; 4: Peptides similar to Bac2A at the highest concentration but demonstrating weaker killing at a 2-fold dilution; 5: Peptides giving very weak or no killing at a 2-fold dilution; 6: Peptides with weak killing activity at the highest concentration; details: free (cleaved) peptides, killing relative to Bac2A
Experimental: Assay for the cleaved peptides from cellulose support. The peptides were cleaved from the dried membrane in an ammonia atmosphere overnight, resulting in free peptides with an amidated C-terminus. The free peptides contained two β-alanines at the C-terminus, in addition to being amidated due to the linker between the cellulose membrane and the peptide sequence. The peptide spots were punched out and transferred in a 96-well microtiter plate. Serial dilutions were carried out from the membrane spots. Four rows were filled with four controls including two with Bac2A and two with of an unrelated peptide. The other eight rows were used for serial dilution steps of the peptide variants. An overnight culture of Pseudomonas aeruginosa strain H1001 was diluted 1:500 using either LB media or 100 mM Tris buffer pH 7.3, 20 mM glucose and was added to the wells (100 μl/well) containing the peptide spots. In all other wells 50 μl were added. The microtiter plate was incubated for 30 min at 37° C. to release the peptides from the membrane. Subsequently, a dilution series were performed and the plate was incubated at 37° C. The luminescence produced by the ATP dependent luciferase system were detected in a time dependent manner using a Tecan Spectra Fluor plus.
as §1
Peptide synthesis on cellulose is a very effective and inexpensive way to investigate many different peptide variants for one particular activity. However, one of the problems of this technique is the low peptide density synthesized on the membrane, about 280 nmol per cm2. An average peptide spot used for the experiments presented is about 0.3 cm2. Therefore, an assay had to be developed that was sensitive enough to show activity with this amount of peptides. P. aeruginosa H1001 has a reporter system (e.g., a luciferase gene cassette) incorporated into the bacterial chromosome in the fliC gene (involved in flagellar biosynthesis) that is constitutively expressed. It will thus produce light if ATP is present. When this strain is killed, e.g. by peptides, the amount of light produced will decrease due to a decrease in ATP levels in the killed cells. This action can thus be monitored by detecting luminescence in a microtiter plate luminescence reader over time. The volume and amount of cells per well were optimized for this assay. After screening, the killing action was monitored with small amounts of the parent peptide Bac2A (2 μg/ml of free peptide).
Forty-nine scrambled peptides (Bac002-Bac050) were synthesized on the cellulose support and then cleaved by ammonia gas resulting in free peptides with an amidated C-terminus including the linker. The peptide spots were transferred to a 96-well microtiter plate and incubated for 30 min to dissociate the peptides from the cellulose. After serial dilution and addition of strain H1001, luminescence was recorded in a time dependent manner (FIG. 1). All 50 scrambled peptides were compared to Bac2A ([…]-NH2; SEQ ID NO: 1) by this assay (see Table 2). […] Further since all scrambled peptides had some activity, a sequence-specific interaction of the peptides with a receptor or target could be excluded.

Sequence | Luminescence at the given time in minutes: 0 [1] | Luminescence at the given time in minutes: 20 [1] | Luminescence at the given time in minutes: 40 [1] | Luminescence at the given time in minutes: 60 [1] | Luminescence at the given time in minutes: 80 [1] | Luminescence at the given time in minutes: 100 [1] | Luminescence at the given time in minutes: 120 [1] | Luminescence at the given time in minutes: 180 [1] | Luminescence at the given time in minutes: 240 [1] [RLU] | Activity Class bound [1] | Activity Class Soluble [2] | ability to inhibit light production (luminescence) [1]
RARRVRVLIAIV [Bac036] | 5208 RLU | 7062 RLU | 5114 RLU | 3233 RLU | 1182 RLU | 394 RLU | 215 RLU | 129 RLU | 107 | 3 (Peptides similar to Bac2A resulting in lux values of less than 500 after 240 min.) | 4 | –
IIRAALRRVRVV [Bac009] | 3935 RLU | 6553 RLU | 4936 RLU | 4512 RLU | 3977 RLU | 3488 RLU | 3216 RLU | 3270 RLU | 3104 | 6 (Peptides having residual luminescence (lux) values greater than 3000 after 240 min.) | 5 | –
VIALVRARVRRI [Bac049] | 4926 RLU | 7239 RLU | 5219 RLU | 4106 RLU | 3188 RLU | 2524 RLU | 2059 RLU | 1687 RLU | 1794 | 5 (Peptides reducing luminescence (lux) values to between 1500 to 3000 after 240 min.) | 3 | –
GATPEDLNQKLS [Bac429, negative control (unrelated) peptide, reference compound] | 4295 RLU and 4593 RLU and 4337 RLU and 4761 RLU and 4537 RLU | 7478 RLU and 7525 RLU and 7118 RLU and 7536 RLU and 7275 RLU | 6031 RLU and 6900 RLU and 6593 RLU and 6318 RLU and 6459 RLU | 5770 RLU and 6732 RLU and 6716 RLU and 6102 RLU and 6149 RLU | 5449 RLU and 6701 RLU and 6273 RLU and 5996 RLU and 6092 RLU | 4779 RLU and 6812 RLU and 6453 RLU and 6086 RLU and 5799 RLU | 4438 RLU and 6872 RLU and 6210 RLU and 5899 RLU and 5611 RLU | 3939 RLU and 7674 RLU and 6656 RLU and 6384 RLU and 5656 RLU | – | – | – | no activity in decreasing luminescence
VLIRIRRVARAV [Bac008] | 3718 RLU | 6695 RLU | 5154 RLU | 4426 RLU | 3671 RLU | 3164 RLU | 2786 RLU | 2703 RLU | 2890 | 5 (Peptides reducing luminescence (lux) values to between 1500 to 3000 after 240 min.) | 2 | –
RVLIARVVRAIR [Bac027] | 4437 RLU | 6695 RLU | 4991 RLU | 4421 RLU | 4011 RLU | 3545 RLU | 3100 RLU | 3182 RLU | 3513 | 6 (Peptides having residual luminescence (lux) values greater than 3000 after 240 min.) | – | –
IVVRRRRAALVI [Bac030] | 4618 RLU | 7325 RLU | 5921 RLU | 5326 RLU | 4981 RLU | 4418 RLU | 4087 RLU | 3861 RLU | 3679 | 6 (Peptides having residual luminescence (lux) values greater than 3000 after 240 min.) | – | –
RAVRIVVIRALR [Bac2A-R] | – | – | – | – | – | – | – | – | – | – | – | only a slightly decreased ability to inhibit light production
IILAVRAVRRVR [Bac029] | 4538 RLU | 6664 RLU | 5062 RLU | 3963 RLU | 2745 RLU | 1799 RLU | 1279 RLU | 1012 RLU | 942 | 4 (Peptides reducing luminescence (lux) values to between 500 to 1499 after 240 min.) | – | –
RRRAIVRVVAIL [Bac023] | 3958 RLU | 7783 RLU | 5656 RLU | 3751 RLU | 1827 RLU | 761 RLU | 329 RLU | 123 RLU | 79 | 3 (Peptides similar to Bac2A resulting in lux values of less than 500 after 240 min.) | – | –
